Measured values from patent publication US20260144796A1, “Compounds and Methods for Improving Health” (Acurx Pharmaceuticals, Inc., priority 2022, published 2026).
Values after ≈ are worked out from the molar mass of the structure shown. Like-named read-outs stand apart in the source and are kept apart here.

Experiments:
[1] = test system: gut microbiome; assay: Germ-free humanized mouse study, 16S rRNA gut microbiome analysis; assay type: in vivo; settings: humanized germ-free mice
Source text: Germ-free (GF) mice (six per group) were randomly assigned to IBZ, VAN, FDX, MTZ, or control groups.
An oral gavage of healthy human-derived fecal slurry was given to GF mice. The humanized mice were housed in a sterile biological safety cabinet (BSC) for one week to allow the donor gut microbiome to establish. Humanized mice were then moved to sterile, micro-isolator cages and pellet chow diet was exchanged for a powder chow diet. The humanized mice were then allowed one week to acclimate to the powder chow diet. In addition, a stool sample was obtained prior to the change in diet (baseline 1). At day 14, once the mice acclimated to the powder chow diet, a second baseline stool sample was obtained (baseline 2) and antibiotic treatment was started. The appropriate antibiotics were added to the powder chow diet for 10 days. At day 16, two days after beginning antibiotic treatment, another stool sample was collected (ABX-1). During the 10-day antibiotic treatment, powder chow dishes were refilled each day with fresh chow containing the randomly assigned antibiotic. Stool samples were again collected at day 24 (ABX-2).
To assess antibiotic microbiome effect, 16S rRNA metagenomics was used on stool samples that were collected at day 0 (baseline 1 and baseline 2) and after 2 and […] of treatment with antibiotics. Bulk DNA was extracted from stool samples using the DNeasy® PowerSoil® Kit. The V4 region of the bacterial 16S rRNA gene was sequenced using the Illumina MiSeq and CLC Genomics Workbench. Raw sequencing reads were processed and curated using the mothur (v.1.48.0) software package and the mothur MiSeq SOP was followed as outlined in Schloss, P. D., et al., Introducing mothur: open-source, platform-independent, community supported software for describing and comparing microbial communities. Appl Environ Microbiol, 2009. 75(23): p. 7537-41 (see also, Kozich, J. J., et al., Development of a dual-index sequencing strategy and curation pipeline for analyzing amplicon sequence data on the MiSeq Illumina sequencing platform. Appl Environ Microbiol, 2013. 79(17): p. 5112-20.). All data visualization and statistical analysis were performed using R studio (R Core Team (2023). R: A Language and Environment for Statistical Computing, Vienna, Austria.).

[2] = test system: C. difficile biofilms (strains R20291, CD 630); assay: C. difficile in vitro biofilm studies (MIC, MBIC, CFU/mL, Crystal Violet biomass); assay type: cell-based; settings: for MBIC: Minimum Biofilm Inhibitory Concentration; for MIC: Clostridioides difficile
Protocol: A basic flow chart outlining the experimental procedure used in these studies may be seen in FIG. 14. Briefly, C. difficile laboratory strain R20291 was grown in Brain heart infusion-supplemented (BHIS) medium. […] Biofilm formation was established via anaerobic incubation of the cultures at 37° C. for 24 hrs. Early biofilm formation was established at 4 hrs, whereas late biofilm formation was established at 24 hrs, 48 hrs, and 72 hrs. Following biofilm formation, the BHIS medium was removed and replaced with fresh media comprising no antibiotic (control), ibezapolstat (IBZ), Fidaxomicin (FDX), or metronidazole (MTZ). The cultures were then anaerobically incubated for 24 hrs or subjected to time course tests. Biofilm biomass was measured using Crystal Violet staining. […] Data was measured and recorded using Cytation 3 calibrated to read at A570. Data was analyzed by comparing percent growth of antibiotic treated cultures with controls.

[3] = test system: C. difficile clinical isolates; settings: for MIC: Clostridioides difficile, 24 h, agar dilution; for MIC range: across the twelve clinical isolates tested
[4] = test system: bacterial infections in the gut; settings: treatment of bacterial infections in the gut; cited from earlier work
[5] = test system: gut microbiome; assay: Phase 1 healthy volunteer study, gut microbiome (metagenomics, qPCR); assay type: in vivo, human; settings: phase 1 healthy volunteer study; treatment over 10 days; shotgun metagenomic sequencing
[6] = antibiotic in powder chow 10 days
[7] = antibiotic in powder chow 10 days, compared to Baseline 2 (D14)
[8] = C. diff. strain R20291, read-out: MIC
[9] = C. difficile clinical isolate MT 4802
[10] = C. difficile clinical isolate MT 5071
[11] = C. difficile clinical isolate MT 5342
[12] = C. difficile clinical isolate MT 5364
[13] = C. difficile clinical isolate MT 5382
[14] = C. difficile clinical isolate MT 5426
[15] = C. difficile clinical isolate MT 5493
[16] = C. difficile clinical isolate MT 5515
[17] = C. difficile clinical isolate MT 5529
[18] = C. difficile clinical isolate MT 5536
[19] = C. difficile clinical isolate SH 1132

Compound	Average Change in Metric ± SD, Bray-Curtis Dissim. to Baseline 1 [1, 6]	Average Change in Metric ± SD, Bray-Curtis Dissim. to Baseline 2 [1, 6]	Avg. Change in Relative Abundance ± SD, Proteobacteria [1, 7]	MBIC ([2]; C. diff. strain R20291)	MIC [2, 8]	MIC [3, 9]	MIC [3, 10]	MIC [3, 11]	MIC [3, 12]	MIC [3, 13]	MIC [3, 14]	MIC [3, 15]	MIC [3, 16]	MIC [3, 17]	MIC [3, 18]	MIC [3, 19]	MIC range [3]	relative abundance of Proteobacteria (in words) ([1]; phylum level)	relative abundance of Verrucomicrobiota (in words) ([1]; phylum level)	other results
CCc1c(Cl)c(O)c(Cl)c(O)c1C(=O)O[C@H]1[C@H](O)[C@H](OC)[C@H](OC/C2=C\C=C\C[C@H](O)/C(C)=C/[C@H](CC)[C@@H](O[C@@H]3OC(C)(C)[C@@H](OC(=O)C(C)C)[C@H](O)[C@@H]3O)/C(C)=C/C(C)=C/C[C@@H]([C@@H](C)O)OC2=O)O[C@@H]1C [Fidaxomicin, fidaxomicin]	0.62 ± 0.02	0.39 ± 0.03	10.2% ± 3%	0.125 µg/mL	0.06 mg/L (≈ 0.0567 µM)	0.006 mg/L (≈ 0.00567 µM)	1 mg/L (≈ 0.945 µM)	1 mg/L (≈ 0.945 µM)	1 mg/L (≈ 0.945 µM)	1 mg/L (≈ 0.945 µM)	0.5 mg/L (≈ 0.473 µM)	1 mg/L (≈ 0.945 µM)	2 mg/L (≈ 1.89 µM)	0.5 mg/L (≈ 0.473 µM)	1 mg/L (≈ 0.945 µM)	0.5 mg/L (≈ 0.473 µM)	<0.03125 to 2 mg/L	–	–	change of Firmicutes (in words) ([1]; phylum level): increased; proportional change of Bacteroidetes (in words) ([1]; phylum level): proportional increases; Avg. Change in Relative Abundance ± SD, Bacteroidetes [1, 7]: 9.9% ± 2.9%; Avg. Change in Relative Abundance ± SD, Verrucomicrobia (Akkermansia) [1, 7]: 3.6% ± 2.8%
Cc1ncc([N+](=O)[O-])n1CCO [Metronidazole, metronidazole]	0.92 ± 0.02	0.92 ± 0.04	15.1% ± 3.8%	0.5 µg/mL	0.5 mg/L (≈ 2.92 µM)	0.25 mg/L (≈ 1.46 µM)	1 mg/L (≈ 5.84 µM)	2 mg/L (≈ 11.7 µM)	2 mg/L (≈ 11.7 µM)	2 mg/L (≈ 11.7 µM)	4 mg/L (≈ 23.4 µM)	2 mg/L (≈ 11.7 µM)	4 mg/L (≈ 23.4 µM)	2 mg/L (≈ 11.7 µM)	0.25 mg/L (≈ 1.46 µM)	1 mg/L (≈ 5.84 µM)	0.25 to 8 mg/L	proportional increases	increased	relative abundance of Proteobacteria (in words) ([1]; phylum level, listed as MTZ): increased; Avg. Change in Relative Abundance ± SD, Firmicutes [1, 7]: 36.5% ± 5.1%; Eagle effect in 24-hour biofilms ([2]; R20291 or CD 630, at higher concentrations): Eagle effect was observed
CN[C@H](CC(C)C)C(=O)N[C@H]1C(=O)N[C@@H](CC(N)=O)C(=O)N[C@H]2C(=O)N[C@H]3C(=O)N[C@H](C(=O)N[C@H](C(=O)O)c4cc(O)cc(O)c4-c4cc3ccc4O)[C@H](O)c3ccc(c(Cl)c3)Oc3cc2cc(c3O[C@@H]2O[C@H](CO)[C@@H](O)[C@H](O)[C@H]2O[C@H]2C[C@](C)(N)[C@H](O)[C@H](C)O2)Oc2ccc(cc2Cl)[C@H]1O [Vancomycin, vancomycin]	0.84 ± 0.02	0.75 ± 0.03	37.2% ± 2.8%	1 µg/mL	–	1 mg/L (≈ 0.69 µM)	4 mg/L (≈ 2.76 µM)	8 mg/L (≈ 5.52 µM)	4 mg/L (≈ 2.76 µM)	1 mg/L (≈ 0.69 µM)	4 mg/L (≈ 2.76 µM)	1 mg/L (≈ 0.69 µM)	4 mg/L (≈ 2.76 µM)	1 mg/L (≈ 0.69 µM)	2 mg/L (≈ 1.38 µM)	4 mg/L (≈ 2.76 µM)	1 to 16 mg/L	proportional increases	increased	relative abundance of Proteobacteria (in words) ([1]; phylum level, listed as VAN): increased; patients having a recurring infection after treatment is discontinued [4]: 20-25%; C. diff growth (CFU/mL) and biomass at sub-MIC compared to control ([2]; 0.4× MIC): reduced; growth in early biofilms at supra-MIC ([2]; 40× MIC, after 48 hours of treatment): reduced growth; MIC [2]: 1 mg/L (≈ 0.69 µM); MIC ([3]; C. difficile clinical isolate MT 4883): 8 mg/L (≈ 5.52 µM); microbiome profile of treated subjects [5]: larger proportion of Proteobacteria
